The results in this text go back to patent publication US5597823A, “Tricyclic substituted hexahydrobenz [e]isoindole alpha-1 adrenergic antagonists” (priority 1995, dated 1997).

SMILES strings stand for the structures. Counter-ions that a name gives are not always drawn.

For the experiment, the target named is T1, α-1A adrenoceptor (dog prostate) (Canis lupus, UniProt A0A8I3NK63).
T1 sequence (A0A8I3NK63 1-466): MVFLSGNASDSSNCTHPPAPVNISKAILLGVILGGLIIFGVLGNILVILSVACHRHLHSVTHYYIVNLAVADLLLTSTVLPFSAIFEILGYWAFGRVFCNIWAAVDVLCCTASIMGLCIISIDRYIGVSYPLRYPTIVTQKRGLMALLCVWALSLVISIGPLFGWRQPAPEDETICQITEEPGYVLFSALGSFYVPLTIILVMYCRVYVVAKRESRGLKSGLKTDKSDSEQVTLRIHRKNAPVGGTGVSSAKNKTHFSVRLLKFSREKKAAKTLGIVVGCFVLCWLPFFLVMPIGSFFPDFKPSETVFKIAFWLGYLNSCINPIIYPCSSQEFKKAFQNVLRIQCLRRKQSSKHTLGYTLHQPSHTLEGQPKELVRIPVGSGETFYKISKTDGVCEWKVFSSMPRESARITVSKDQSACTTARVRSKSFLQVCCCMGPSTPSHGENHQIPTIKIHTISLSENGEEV
In words: Functional antagonism: phenylephrine (PE)-induced contraction of canine prostate strips. The class given is cell-based. The settings on record: Table 2b; vs phenylephrine; Schild plot. The source says:
Functional assays indicative of pharmacologically defined α-1 adrenoceptors were used to further characterize compounds. Inhibition of phenylephrine (PE)-induced contraction of canine prostate smooth muscle can be correlated with α-1A adrenoceptor activation. […] For each of these models, agonist dose response curves were repeated against increasing concentrations of test agent to derive a Schild plot [log ([…]) against log (molarity of test agent)] to determine the pA2.
Canine prostate strips were used in vitro as previously described (Hieble, J. P., Boyce, A. J. and Caine, M., Fed. Proc., 45:2609-2614 (1986)), to determine antagonist potencies against phenylephrine-induced contractions.
For the molecule `COC(=O)c1ccc2sc3c(=O)n(CCN4C[C@@H]5CCc6c(OC)cccc6[C@@H]5C4)c(=O)[nH]c3c2c1` [Example 44, 3-[2-((3aR,9bR)-cis-6-Methoxy-2,3,3a,4,5,9b-hexahydro-[1H]-benz[e]isoindol-1-yl)ethyl]-[1]-8-carbomethoxy-benzothieno[3,2-d]pyrimidine-2,4(1H,3H)-dione hydrochloride], the “pA2 Dog Prostate [α-1A]” value was found to be 8.09. To `COc1cccc2c1CC[C@H]1CN(CCn3c(=O)[nH]c4c(sc5ccc(C(=O)N(C)C)cc54)c3=O)C[C@@H]21` [Example 45, hydrochloride] belongs 9.48; to `COc1cccc2c1CC[C@H]1CN(CCn3c(=O)[nH]c4c(sc5ccc(C(N)=O)cc54)c3=O)C[C@@H]21` [Example 46, 3-[2-((3aR,9bR)-cis-6-Methoxy-2,3,3a.4,5,9b-hexahydro-[1H]-benz[e]isoindol-1-yl)ethyl]-[1]-8-carboxamido-benzothieno[3,2-d]pyrimidine-2,4(1H,3H)-dionehydrochloride], 9.61; to `COc1cccc2c1CC[C@H]1CN(CCn3c(=O)[nH]c4c(sc5cc([N+](=O)[O-])ccc54)c3=O)C[C@@H]21` [Example 47, 3-[2-((3aR,9bR)-cis-6-Methoxy-2,3,3a.4,5,9b-hexahydro-[1H]-benz[e]isoindol-1-yl)ethyl]-[1]-7-nitro-benzothieno[3,2-d]pyrimidine-2,4(1H,3H)-dione hydrochloride], 8.7. Consider `COc1cccc2c1CC[C@H]1CN(CCn3c(=O)[nH]c4c(sc5ccc([N+](=O)[O-])cc54)c3=O)C[C@@H]21` [Example 48, 3-[2-((3aR,9bR)-cis-6-Methoxy-2,3,3a,4,5,9b-hexahydro-[1H]-benz[e]isoindol-1-yl)ethyl]-[1]-8-nitro-benzothieno[3,2-d]pyrimidine-2,4(1H,3H)-dione hydrochloride], for which the “pA2 Dog Prostate [α-1A]” value was determined as 8.32. To `COc1cccc2c1CC[C@H]1CN(CCn3c(=O)[nH]c4c(sc5ccc(NC(C)=O)cc54)c3=O)C[C@@H]21` [Example 49, 3-[2-((3aR,9bR)-cis-6-Methoxy-2,3,3a,4,5,9b-hexahydro-[1H]-benz[e]isoindol-1-yl)ethyl]-[1]-8-acetamido-benzothieno[3,2-d]pyrimidine-2,4(1H,3H)-dione hydrochloride] belongs 7.84. In the case of `COc1cccc2c1CC[C@H]1CN(CCn3c(=O)[nH]c4c(sc5ccc(N(C)C)cc54)c3=O)C[C@@H]21` [Example 50, 3-[2-((3aR,9bR)-cis-6-Methoxy-2,3,3a,4,5,9b-hexahydro-[1H]-benz[e]isoindol-1-yl)ethyl]-[1]-8-N,N-dimethylamino-benzothieno[3,2-d]pyrimidine-2,4(1H,3H)-dione hydrochloride] it was 7.24. To `COc1cccc2c1CC[C@H]1CN(CCn3c(=O)[nH]c4cc5[nH]cnc5cc4c3=O)C[C@@H]21` [Example 53, 7-[2-((3aR,9bR)cis-6-Methoxy-2,3,3a,4,5,9b-hexahydro,[1H]-benz[e]isoindol-1-yl)ethyl]-imidazo[4,5-g]quinazoline-6,8(1H,5H)-dione hydrochloride] belongs 9.25; to `COc1cccc2c1CC[C@H]1CN(CCn3c(=O)[nH]c4c(sc5cccc(C#N)c54)c3=O)C[C@@H]21` [Example 54, 3-2-((3aR,9bR)-cis-6-Methoxy-2,3,3a,4,5,9b-hexahydro-[1H]-benz[e]isoindol-1-yl)ethyl]-[1]-9-cyano-benzothieno[3,2-d]pyrimidine-2,4(1H,3H)-dione hydrochloride], 8.74; to `COc1cccc2c1CC[C@H]1CN(CCn3c(=O)[nH]c4c(sc5c(C#N)cccc54)c3=O)C[C@@H]21` [Example 55, 3-[2-((3aR,9bR)-cis-6-Methoxy-2,3,3a,4,5,9b-hexahydro-[1H]-benz[e]isoindol-1-yl)ethyl]-[1]-6-cyano-benzothieno[3,2-d]pyrimidine-2,4(1H,3H)-dione hydrochloride], 8.11.
